Measurements as given in patent US20230000876A1, “TREATING CANCERS WITH A CYCLIN-DEPENDENT KINASE INHIBITOR” (Nuvation Bio Inc., priority 2021, published 2023).

What was measured:
VCap prostate cancer = test: Non-castrated VCap prostate cancer model; format: in vivo, male CB17/Scid mice; settings: Group 7: Abiraterone 350 mg/kg p.o. QD * 26 days
Method: Compound (I), enzalutamide, and abiraterone were tested in non-castrated VCap prostate cancer model in male CB17/Scid mice.
All treatment groups reduced mean tumor volume.

xMDA-MB-361 breast tumor = xMDA-MB-361 breast tumor model (ER-positive/HER2-positive); format: in vivo, female BALB/c nude mice; settings: Group 3: Tucatinib 60 mg/kg PO QD*42 days
Method: Trastuzumab, tucatinib, Compound (I), and fulvestrant were tested in a xMDA-MB-361 breast tumor model (ER-positive/HER2-positive) on female BALB/c nude mice.

xBT474 breast tumor = xBT474 breast tumor model (ER-negative/HER2-positive); settings: Group 3: Tucatinib 25 mg/kg PO QD*28 days

With C[C@]12CC[C@H](O)CC1=CC[C@@H]1[C@@H]2CC[C@]2(C)C(c3cccnc3)=CC[C@@H]12 [Abiraterone, abiraterone, reference compound] the “Tumor volume (mean ± SEM)” value (VCap prostate cancer; Day 0) was 171.7 ± 5.9 mm^3, the “Tumor volume (mean ± SEM)” value (VCap prostate cancer; Day 4) was 278 ± 22.9 mm^3 and the “Tumor volume (mean ± SEM)” value (VCap prostate cancer; Day 7) was 365.9 ± 35.9 mm^3. The “Tumor volume (mean ± SEM)” value (VCap prostate cancer; Day 11) was 582.6 ± 43.3 mm^3, the “Tumor volume (mean ± SEM)” value (VCap prostate cancer; Day 14) was 762.2 ± 73.7 mm^3 and the “Tumor volume (mean ± SEM)” value (VCap prostate cancer; Day 18) was 985.6 ± 86.7 mm^3. The “Tumor volume (mean ± SEM)” value (VCap prostate cancer; Day 21) was 1056.1 ± 83.2 mm^3 and the “Tumor volume (mean ± SEM)” value (VCap prostate cancer; Day 25) was 1184.9 ± 82.6 mm^3.
With Cc1cc(Nc2ncnc3ccc(NC4=NC(C)(C)CO4)cc23)ccc1Oc1ccn2ncnc2c1 [Tucatinib] the “Tumor volume (mean ± SEM)” value (xMDA-MB-361 breast tumor; Day 0) was 157 ± 11 mm^3, the “Tumor volume (mean ± SEM)” value (xMDA-MB-361 breast tumor; Day 3) was 148 ± 11 mm^3 and the “Tumor volume (mean ± SEM)” value (xMDA-MB-361 breast tumor; Day 7) was 156 ± 20 mm^3. The “Tumor volume (mean ± SEM)” value (xMDA-MB-361 breast tumor; Day 10) was 219 ± 30 mm^3, the “Tumor volume (mean ± SEM)” value (xMDA-MB-361 breast tumor; Day 14) was 408 ± 59 mm^3 and the “Tumor volume (mean ± SEM)” value (xMDA-MB-361 breast tumor; Day 17) was 658 ± 112 mm^3. For the same compound, the “Tumor volume (mean ± SEM)” value (xMDA-MB-361 breast tumor; Day 21) was 970 ± 206 mm^3, the “Tumor volume (mean ± SEM)” value (xMDA-MB-361 breast tumor; Day 24) was 1185 ± 222 mm^3 and the “Tumor volume (mean ± SEM)” value (xMDA-MB-361 breast tumor; Day 28) was 1496 ± 250 mm^3. The “Tumor volume (mean ± SEM)” value (xMDA-MB-361 breast tumor; Day 31) was 1707 ± 309 mm^3, the “Tumor volume (mean ± SEM)” value (xMDA-MB-361 breast tumor; Day 35) was 1580 ± 240 mm^3 and the “Tumor volume (mean ± SEM)” value (xMDA-MB-361 breast tumor; Day 38) was 1675 ± 283 mm^3. For the same compound, the “Tumor volume (mean ± SEM)” value (xMDA-MB-361 breast tumor; Day 42) was 1670 ± 344 mm^3, the “Tumor volume (mean ± SEM)” value (xBT474 breast tumor; Day 0) was 146 ± 10 mm^3 and the “Tumor volume (mean ± SEM)” value (xBT474 breast tumor; Day 4) was 177 ± 11 mm^3. For the same compound, the “Tumor volume (mean ± SEM)” value (xBT474 breast tumor; Day 7) was 199 ± 19 mm^3, the “Tumor volume (mean ± SEM)” value (xBT474 breast tumor; Day 11) was 168 ± 16 mm^3 and the “Tumor volume (mean ± SEM)” value (xBT474 breast tumor; Day 14) was 169 ± 15 mm^3. The “Tumor volume (mean ± SEM)” value (xBT474 breast tumor; Day 18) was 234 ± 28 mm^3, the “Tumor volume (mean ± SEM)” value (xBT474 breast tumor; Day 21) was 288 ± 35 mm^3 and the “Tumor volume (mean ± SEM)” value (xBT474 breast tumor; Day 25) was 341 ± 47 mm^3. For the same compound, the “Tumor volume (mean ± SEM)” value (xBT474 breast tumor; Day 28) was 397 ± 68 mm^3, the “Tumor volume (mean ± SEM)” value (xBT474 breast tumor; Day 32) was 406 ± 96 mm^3 and the “Tumor volume (mean ± SEM)” value (xBT474 breast tumor; Day 35) was 488 ± 112 mm^3. For the same compound, the “Tumor volume (mean ± SEM)” value (xBT474 breast tumor; Day 39) was 420 ± 91 mm^3, the “Tumor volume (mean ± SEM)” value (xBT474 breast tumor; Day 42) was 431 ± 89 mm^3 and the “Tumor volume (mean ± SEM)” value (xBT474 breast tumor; Day 46) was 421 ± 81 mm^3.
